Measurements: ChEMBL document CHEMBL1137215, “A 4'-C-ethynyl-2',3'-dideoxynucleoside analogue highlights the role of the 3'-OH in anti-HIV active 4'-C-ethynyl-2'-deoxy nucleosides” (J Med Chem, 2004)

What was measured:
[1] = system: MT4; assay: Inhibitory concentration of compound against HIV LAI in MT-4 cells when tested at a range of 0.001-10 uM concentration; type: functional, cell-based; details: Homo sapiens
[2] = system: MT2; assay: Inhibitory concentration of compound against HIV LAI in MT-2 cells when tested at a range of 0.001-10 uM concentration; type: functional, cell-based; details: Homo sapiens
[3] = system: MT4; assay: Inhibitory concentration against HIV LAI in MT-4 cells when tested at a range of 0.001-10 uM concentration; Inactive; type: functional, cell-based, Homo sapiens
[4] = system: MT2; assay: Inhibitory concentration against HIV LAI in MT-2 cells when tested at a range of 0.001-10 uM concentration; Inactive; type: functional, cell-based, Homo sapiens

Question: For `CC(C)c1nc(CN(C)C(=O)N[C@H](C(=O)N[C@@H](Cc2ccccc2)C[C@H](O)[C@H](Cc2ccccc2)NC(=O)OCc2cncs2)C(C)C)cs1` [RITONAVIR], which IC50 [1] is on record?
Answer: Its IC50 is 10 nM.

Question: And the IC50 [2]?
Answer: Its IC50 is 10 nM.

Question: `C#C[C@@]1(CO)CCC(n2ccc(N)nc2=O)O1` (some centres undefined) was tested. Which IC50 [3] did it give?
Answer: The IC50 was “Not Active”.

Question: What about the IC50 [4] of the same compound?
Answer: Its IC50 is “Not Active”.
